Assay results from publication PMC12459020, “Chemical Probes that Target a Dissociative LuxR-Type Quorum Sensing Receptor in Gram-Negative Bacteria” (ACS Chemical Biology, 2025).
Where two headings read alike, the source gives them in different places.

Tests used:
[1] = target: T1, EsaR (Pantoea stewartii subsp. stewartii, UniProt P54293); assay: cell-based; conditions: for activation at 100 µM / inhibition at 100 µM: 3.5 h; for activation at 100 µM: read-out: EsaR-repressed (pesaR) [%] agonism; for inhibition at 100 µM: read-out: EsaR-repressed (pesaR) antagonism
T1 construct: expressed in transfected cells; host or cells: E. coli JLD271 (K12 ΔsdiA), arabinose-induced pJN105-esaR
T1 sequence (P54293 whole entry): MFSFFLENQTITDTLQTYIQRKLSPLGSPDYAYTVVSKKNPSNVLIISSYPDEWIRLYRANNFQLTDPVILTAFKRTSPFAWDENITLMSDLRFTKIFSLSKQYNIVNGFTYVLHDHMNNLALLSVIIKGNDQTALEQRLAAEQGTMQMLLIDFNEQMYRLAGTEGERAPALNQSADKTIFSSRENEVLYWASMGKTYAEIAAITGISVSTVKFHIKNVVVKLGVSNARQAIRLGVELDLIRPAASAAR
Description: (§1) EsaR transcriptional activation and repression were examined using E. coli and P. stewartii reporters (strains and plasmids listed in Table S1; see Methods section for assay details). […] We constructed reporters in E. coli based on previously reported EsaR reporters (Table S1). Each strain contained an EsaR expression plasmid (pJN105-esaR) and a reporter plasmid with either an EsaR-activated promoter (pesaS) or an EsaR-repressed promoter (pesaR) upstream of luxABCDE or GFP.
(§2) Gibson assembly was used to create all constructs. Plasmid pJN105-esaR was created by amplifying esaR from pAC-esaR and inserting it into pJN105. pesaSlux was created by inserting pesaS, amplified from pPesaR-AC:gfp, into the pCS-pesaRlux backbone. The pesaR promoter was amplified from pCS-pesaRlux and inserted into the pPesaR-AC:gfp backbone to create pesaR:GFP. P. stewartii reporter strains were created by transforming pesaR:GFP or pPesaR-AC:gfp into ESN51 by conjugation using E. coli S17 λpir as the donor strain. See SI for details of E. coli ExpR2 reporter construction.
(§3) Overnight cultures were diluted 1:10 in LB medium with appropriate antibiotics and grown at 37 °C (200 rpm) to an OD600 of 0.22–0.27 before induction with 4 mg mL^–1 arabinose. OD600 was measured by placing 200 μL of culture into a 96-well plate and reading optical density using the BioTek Synergy 2 plate reader. Assays were performed in technical triplicate in clear-bottom, white and clear-bottom, black 96-well microtiter plates (Corning Costar 3903 and 3904) for luminescence and fluorescence reporters, respectively. Compounds were dissolved in DMSO, and 2 μL of this stock, or DMSO as a negative control, was added to each well prior to adding 198 μL of induced culture. Plates were incubated at 37 °C (200 rpm) for 3.5 h. Each well was mixed by pipetting before reading OD600 and either luminescence or fluorescence. Single-point screens were performed with one or two biological replicates, and all dose–response curves were performed in biological triplicate. EC50 values were calculated based on a nonlinear regression of log(concentration) vs response (three parameters) using GraphPad Prism 9 software.

[2] = system: ExpR1; conditions: cited from earlier work; for ExpR1 antagonism: 5 µM compound against 5 µM OHHL, negative values indicate potential activators, ref 6 (SI; Palmer et al., 2011); for ExpR1 [%] (agonism, activation): compounds at 200 μM, cellulase activity in P. versatile AC5117, ref Palmer et al., 2011 (main ref 44, SI ref 6)
[3] = system: ExpR2; conditions: cited from earlier work; for ExpR2 antagonism (percent inhibition): 5 µM compound against 5 µM OHHL, negative values indicate potential activators; for ExpR2 [%] (agonism, percent activation): compounds at 200 μM, cellulase activity in P. versatile AC5099, ref Palmer et al., 2011 (main ref 44, SI ref 6)
[4] = target: T1, EsaR; assay: cell-based; conditions: for activation at 100 µM / inhibition at 100 µM: 3.5 h; for activation at 100 µM: read-out: EsaR-activated (pesaS) [%] agonism; for inhibition at 100 µM: read-out: EsaR-activated (pesaS) antagonism; for EsaR agonism, in words: E. coli EsaR reporters, primary screen at 100 μM
Description: as §1, §2, §3

[5] = target: ExpR2 (Pectobacterium versatile, UniProt Q1A4U9); assay: E. coli GFP reporter with ExpR2-activated promoter (prsmA); assay type: cell-based, Pectobacterium versatile Ecc71
Chain of ExpR2 (Pectobacterium versatile, UniProt Q1A4U9) (Q1A4U9 entry or part of it): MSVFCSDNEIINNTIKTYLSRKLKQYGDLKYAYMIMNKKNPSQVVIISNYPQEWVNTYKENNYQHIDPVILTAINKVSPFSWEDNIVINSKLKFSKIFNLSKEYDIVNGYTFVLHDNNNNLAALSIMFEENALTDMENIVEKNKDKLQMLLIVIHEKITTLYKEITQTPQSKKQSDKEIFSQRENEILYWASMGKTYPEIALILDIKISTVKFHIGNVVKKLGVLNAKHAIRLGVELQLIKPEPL
Description: One difference between our prior study in ExpR1/2 and that reported here in EsaR is that the former relied on QS-controlled phenotypes in P. versatile Ecc71 (i.e., cellulase and pectate lyase activity) to measure compound activity, unlike the heterologous transcriptional reporters used for EsaR. To further investigate the differences in antagonism assay data observed between EsaR and ExpR1/2, an E. coli reporter was created with an ExpR2 protein production plasmid (pJN105-expR2) and a reporter plasmid with an ExpR2-activated promoter (prsmA) controlling GFP (see Methods section). […] We return to possible explanations for the differences observed between the ExpR2 phenotypic assays and transcriptional reporters below.
Supporting Information — Stoutland et al.
Additional experimental methods.
Plasmid and reporter strain construction for ExpR2 reporters
Gibson assembly was used to create all constructs. Strains, plasmids and primers are listed in Ta b l es S1 and S2. Plasmid pJN105-expR2 was created by amplifying expR2 from Pectobacterium versatile Ecc71 genomic DNA and inserting it into pJN105, amplified from pJN105-esaR. […] E. coli reporter strains were created by transforming pJN105-expR2 and prsmA:GFP into electrocompetent E. coli JLD271.
E. coli ExpR2 reporter assay
Single colonies of the reporter strain were used to inoculate LB medium supplemented with appropriate antibiotics, and these cultures were grown overnight at 37 °C with shaking at 200 rpm.
Overnight cultures were diluted 1:10 in LB medium with appropriate antibiotics and grown at 37 °C to an OD600 of 0.22–0.27 before induction with 0.4 mg/mL arabinose. Arabinose concentration was optimized to maximize dynamic range of reporter data. Compounds were dissolved in DMSO, and 2 µL of this stock, or DMSO as a negative control, was added to each well of a clear-bottom, black 96-well plate prior to adding 198 µL of induced culture. Plates were incubated at 37 °C with shaking at 200 rpm for 3.5 hr. Assays were performed in technical and biological triplicate. Each well was mixed by pipetting before reading fluorescence and OD600. EC50 values were calculated based on a nonlinear regression of log(concentration) vs. response - variable slope (four parameters) using GraphPad Prism 9 software.

[6] = system: LuxR; conditions: cited from earlier work; for LuxR antagonism: 5 µM compound against 5 µM OHHL, negative values indicate potential activators, ref 6 (SI; Palmer et al., 2011); for LuxR [%] (agonism, activation): compounds at 200 μM, luminescence in V. fischeri ES114 (ΔluxI), ref Palmer et al., 2011 (main ref 44, SI ref 6)
[7] = system: P. stewartii ΔesaI (ESN51); assay: Mucoidy (exopolysaccharide) phenotypic assay on CPG agar; assay type: cell-based, Pantoea stewartii
Description: In P. stewartii, EsaR regulates the production of the exopolysaccharide stewartan, which clogs the xylem of infected plants and leads to the wilt and lesions characteristic of Stewart’s wilt. EsaR binds directly to the rcsA promoter to repress transcription at low cell density, and when this repression is relieved at high cell density, RcsA contributes to activation of the cps gene cluster, which encodes the stewartan biosynthetic pathway. Exopolysaccharide production can be visualized by the growth of mucoid colonies on casamino acid-peptone-glucose (CPG) agar plates, and this phenotypic assay is commonly used to evaluate EsaR-mediated QS in P. stewartii. , To investigate the ability of the synthetic EsaR agonists uncovered here to regulate a QS-controlled phenotype in P. stewartii, selected compounds were tested for their ability to induce mucoidy in the P. stewartii (ΔesaI) strain, ESN51 (Figure ).
P. stewartii ΔesaI (ESN51) was grown on Casamino Peptone Glucose (CPG) agar (1 g/L casamino acids, 10 g/L peptone, 10 g/L glucose, 17 g/L agar) supplemented with a 1:1000 dilution of compound stocks or DMSO. Plates were incubated at 28 °C for 2 days without shaking before imaging with a smartphone camera (Apple iPhone X). Images are representative of at least two biological replicates.

[8] = ref 6 (SI; Palmer et al., 2011)
[9] = previously reported phenotypic reporter data, ref 6 (SI; Palmer et al., 2011)
[10] = concentration not given, CPG agar, ESN51
[11] = 10 μM in CPG agar, ESN51, 2 days at 28 °C
[12] = 100 μM in CPG agar, ESN51, 2 days at 28 °C

For `O=C(CCc1ccc(Br)cc1)N[C@H]1CCOC1=O` [B7, 4-Br phenylpropanoyl HL], the activation at 100 µM [1] is given as 66%, the inhibition at 100 µM [1] is given as -36% and the ExpR1 antagonism [2] is given as 78%. For the same molecule, the “ExpR1 [%] (agonism, activation)” value [2] was 3%, the “ExpR2 antagonism (percent inhibition)” value [3, 8] was 66% and the “ExpR2 [%] (agonism, percent activation)” value [3] was 8%. The IC50 [3, 9] was 2750 nM, the activation at 100 µM [4] was 56% and the inhibition at 100 µM [4] was -50%. The “EsaR agonism, in words” value [4] was “agonized EsaR”, the “ExpR2 agonism, in words” value ([5]; E. coli ExpR2 GFP reporter) was “behaved as an agonist” and the LuxR antagonism [6] was 80%. For the same molecule, the “LuxR [%] (agonism, activation)” value [6] was 2%.

With `CCCCCCS(=O)(=O)N[C@H]1CCOC1=O` [A11] the induction of mucoidy [7, 10] was “did not induce mucoidy”.

For `O=C1OCC[C@@H]1NS(=O)(=O)c1ccccc1` [GAF 57], the induction of mucoidy [7, 11] was “not at 10 μM” and the induction of mucoidy [7, 12] was “induced mucoidy”.

Work on `O=C(Cc1cccc([N+](=O)[O-])c1)N[C@H]1CCOC1=O` [C14, 3-NO2 PHL] yielded an EC50 [1] of no less than 98000 nM, an activation at 100 µM [1] of 22% and an inhibition at 100 µM [1] of -3%. For the same molecule, the ExpR1 antagonism [2] was -15%, the “ExpR1 [%] (agonism, activation)” value [2] was 115% and the “ExpR2 antagonism (percent inhibition)” value [3, 8] was -4%. For the same molecule, the “ExpR2 [%] (agonism, percent activation)” value [3] was 103%, the EC50 [3, 9] was 500 nM and the EC50 [4] was no less than 68000 nM. The activation at 100 µM [4] was 62%, the inhibition at 100 µM [4] was -56% and the “EsaR agonism, in words” value [4] was “moderate activator”. For the same molecule, the EC50 [5] was 160 nM, the “ExpR2 agonism, in words” value ([5]; E. coli ExpR2 GFP reporter) was “acted as agonists” and the “fold less potent than OHHL in ExpR2 E. coli reporter” value ([5]; E. coli ExpR2 GFP reporter) was “approximately 40 fold”. The LuxR antagonism [6] was -18% and the “LuxR [%] (agonism, activation)” value [6] was 130%.

In the case of `CCCC(=O)CC(=O)N[C@H]1CCOC1=O` [OHHL, 3-oxo-hexanoyl HL, reference compound], the activation at 100 µM [1] is listed as 100%, the inhibition at 100 µM [1] is listed as 0% and the ExpR1 antagonism [2] is listed as 0%. For the same molecule, the “ExpR1 [%] (agonism, activation)” value [2] was 100%, the “ExpR2 antagonism (percent inhibition)” value [3, 8] was 0% and the “ExpR2 [%] (agonism, percent activation)” value [3] was 100%. The EC50 [3, 9] was 2000 nM, the activation at 100 µM [4] was 100% and the inhibition at 100 µM [4] was 0%. For the same molecule, the EC50 [5] was 3.9 nM, the “ExpR2 agonism, in words” value ([5]; E. coli ExpR2 GFP reporter) was “acted as agonists” and the LuxR antagonism [6] was 0%. The “LuxR [%] (agonism, activation)” value [6] was 100% and the induction of mucoidy [7, 11] was “smooth”.

In the case of `O=C1OCC[C@H]1NS(=O)(=O)c1ccc(Cl)c(Cl)c1` [GAF 55], the “EsaR agonism at 100 μM (bound stated in text)” value ([4]; 100 μM, E. coli EsaR reporter) is reported as “less than 50%” and the induction of mucoidy [7, 10] is reported as “did not induce mucoidy”.

In the case of `CCCCCC(O)CC(=O)N[C@H]1CCOC1=O` (some centres unmarked) [H2], the “fold less potent than OOHL in EsaR” value ([4]; E. coli EsaR reporter EC50 values) is reported as roughly 20 fold, the induction of mucoidy [7, 11] is reported as “not at 10 μM” and the induction of mucoidy [7, 12] is reported as “induced mucoidy”.

For `O=C1OCC[C@@H]1NS(=O)(=O)c1cccc(Cl)c1` [GAF 28], the EC50 [1] was 2200 nM, the EC50 [4] was 2200 nM and the induction of mucoidy [7, 11] was “induced mucoidy”.

In the case of `O=C(Cc1cc(C(F)(F)F)cc(C(F)(F)F)c1)N[C@H]1CCOC1=O` [E9], the activation at 100 µM [1] is given as 41%, the inhibition at 100 µM [1] is given as -17% and the ExpR1 antagonism [2] is given as 4%. For the same molecule, the “ExpR1 [%] (agonism, activation)” value [2] was 9%, the “ExpR2 antagonism (percent inhibition)” value [3, 8] was 16% and the “ExpR2 [%] (agonism, percent activation)” value [3] was 15%. The activation at 100 µM [4] was 60%, the inhibition at 100 µM [4] was -67% and the LuxR antagonism [6] was 0%. For the same molecule, the “LuxR [%] (agonism, activation)” value [6] was 107%.

In the case of `O=C(CCc1ccccc1)N[C@H]1CCOC1=O` [B9], the activation at 100 µM [1] is given as 6%, the inhibition at 100 µM [1] is given as -10% and the ExpR1 antagonism [2] is given as 48%. The “ExpR1 [%] (agonism, activation)” value [2] was 4%, the “ExpR2 antagonism (percent inhibition)” value [3, 8] was 37% and the “ExpR2 [%] (agonism, percent activation)” value [3] was 12%. The activation at 100 µM [4] was 23%, the inhibition at 100 µM [4] was -24% and the LuxR antagonism [6] was 44%. For the same molecule, the “LuxR [%] (agonism, activation)” value [6] was 3%.

In the case of `O=C(N[C@H]1CCOC1=O)c1ccc(Br)cc1` [B6], the activation at 100 µM [1] is given as 11%, the “ExpR1 [%] (agonism, activation)” value [2] is given as 2% and the “ExpR2 [%] (agonism, percent activation)” value [3] is given as 7%. For the same molecule, the activation at 100 µM [4] was -4% and the “LuxR [%] (agonism, activation)” value [6] was 2%.
